From patent US12077741B2, “Crosslinked hydrogel compositions for regulating states of encapsulated cancer cells” (University Of Delaware, priority 2017, dated 2024)
Read-outs that look alike come from different tables or passages of the source. Values belong to the compound of their own block, whether it stands above or below them.

Key:
Assay type in all cases: cell-based
MDA-MB-231 cells [1] = assay: Drug response, cells cultured in hydrogels; set-up: viability, times higher in cellular dormancy than growth state: dose or concentration left out as unconfirmed; details: for viability at 4000 µM / viability at 7000 µM / viability at 10000 µM / EC50 / IC50 / viability at 50 µM / viability at 550 µM / viability at 10 µM / viability at 1000 µM / viability at 100 µM: Homo sapiens; for viability at 4000 µM: 4 mM; for viability at 4000 µM / viability at 7000 µM / viability at 10000 µM / viability at 50 µM / viability at 550 µM / viability at 10 µM / viability at 1000 µM / viability at 100 µM: read-out: cell viability (normalized to vehicle control); for viability at 7000 µM: 7 mM; for viability at 10000 µM: 10 mM; for viability at 50 µM: 0.05 mM; for viability at 550 µM: 0.55 mM; for viability at 10 µM: 0.01 mM; for viability at 100 µM: 0.10 mM
Description: DOX, PAC, and 5-FU stocks were diluted in medium to desired concentrations: DOX (0.001, 0.01, 0.05, 0.1, 0.55, 1, or 2 mM), PAC (0.05, 0.1, 0.55, or 1 mM), and 5-FU (1.0, 4.0, 7.0, or 10 mM).
At the highest concentrations tested, the DMSO concentration ranged between 1-2% (v/v) for all drugs used. […] Thus, all vehicle controls used in this study contained medium with 1% (v/v) DMSO. […] 15 days post encapsulation, cell-laden hydrogels were rinsed with PBS and transferred to a new well plate for drug exposure for 48 hr. The hydrogels were rinsed twice with PBS to remove excess medium, followed by labeling with a Live/Dead® cell viability kit (Invitrogen) in PBS for 30 min, according to the manufacturer's instructions. The hydrogels were rinsed with PBS for 10 min to remove excess stain. Labeled hydrogels were placed on coverslips and imaged using structured Illumination on a Zeiss AxioObserver Z1 inverted fluorescent microscope as previously described. 32-34 Fluorescent z-stacks (z-height: 150 μm) were acquired approximately at the center of the hydrogels, between the bottom and top surfaces of each sample, and analyzed using FIJI software (NIH). Due to the red autofluorescence of DOX, only the live cells were imaged for viability studies. To quantify cell viability, the number of live cells was normalized to the number of live cells measured in the vehicle control. A minimum of 6 hydrogels were analyzed for each condition.
(§1) For statistical comparison between viability values, distribution normality was assessed via quantification of skewness and kurtosis, where values within ±2 indicated a normal distribution. Equal variance among groups was additionally evaluated. A one-way analysis of variance (ANOVA) with a post-hoc Tukey-Kramer test was implemented to determine statistical significance between multiple groups. Unless otherwise Indicated, p<0.05 was considered statistically significant. Origin Lab software was used to fit DOX viability data. A nonlinear, growth/sigmoidal curve fit using a dose response function with a Levenberg Marquardt iteration algorithm was performed and allowed to converge for all conditions with a chi-square tolerance of 1E-9.

MDA-MB-231 cells [2] = assay: Drug response, 2D controls on tissue culture plastic; details: for EC50 / IC50: 2D culture
Description: MDA-MB-231 cells were trypsinized, counted, and seeded in a fibronectin coated (10 μg/mL), 96 well plate at a density of 5,000 cells/well in serum-containing medium. To measure the drug response of cells independent of encapsulation, pre-encapsulation conditions were replicated by allowing the cells to adhere overnight followed by culture in serum-free medium for 48 hr. DOX, PAC, and 5-FU were reconstituted in DMSO to a stock concentration of 172.4, 58.5, and 384.6 mM, respectively. Stock solutions were diluted in medium to a range of concentrations: DOX (0.001, 0.01, 0.1, 1, 10, 100, or 1000 μM), PAC (0.001, 0.01, 0.1, 1, 10, or 100 μM), and 5-FU (0.001, 0.01, 0.1, 1, 10, 100, or 1000 μM) and added to the MDA-MB-231 cells for 48 hr (n=6 wells per concentration). 46 At the highest drug concentration tested, the DMSO concentration remained […]; thus, 0.1% (v/v) DMSO was used as a vehicle control in 2D studies. Cells were rinsed in PBS twice to remove excess medium, followed by labeling with a Live/Dead® cell viability kit (Invitrogen). Only live cells were labeled, as dead cells detached from the wells and were washed away. Labeled cells were imaged using the proper filter cubes and analyzed using FIJI software (NIH).
as §1
The response of MDA-MB-231 cells cultured on standard tissue culture plastic (2D) to DOX, PAC, and 5-FU was quantified as control. MDA-MB-231 cells were cultured on 96 well plates and serum-starved for 48 hr, following the same protocol used for encapsulation for ease of comparison. The MDA-MB-231 cells were exposed to drug-containing medium at the following concentrations (DOX: 0.001, 0.01, 0.1, 1, 10, 100, or 1000 μM; PAC: 0.001, 0.01, 0.1, 1, 10, or 100 μM; and 5-FU: 0.001, 0.01, 0.1, 1, 10, 100, or 1000 μM) for 48 hr. The live MDA-MB-231 cells were fluorescently labeled, imaged, and quantified (FIG. 1).

MDA-MB-231 cells [3] = assay: Doxorubicin accumulation and nuclear localization; details: for nuclear to cytoplasmic (N/C) ratio: 48 hr
Description: Cells were encapsulated in hydrogel formulations that induced growth, balanced dormancy, or cellular dormancy for 15 days as described above. The medium was replaced with DOX-containing medium at a concentration of 0.05 mM. Four hydrogels for each formulation were imaged at varying time points (1, 2, 3, 5, 12, 20, 24, 48 hr). The mean cellular fluorescence intensity was measured and plotted against time to quantify intracellular DOX accumulation. To calculate the nuclear to cytoplasmic ratio, the fluorescence intensity measurements of the cytoplasmic and nuclear regions were acquired for each cell, with at least 70 cells measured per image. Due to its mechanism of action, DOX is known to primarily localize to the nucleus of DOX-sensitive cell lines. Studies quantifying DOX localization in multiple cell lines show alignment between high fluorescence intensity and the nucleus. Additionally, nuclear location was approximated based on areas of high fluorescence intensity with distinct morphological features (size, location).

[4] = MDA-MB-231, 48 h, balanced dormancy, 48 hr
[5] = MDA-MB-231, 48 h, cellular dormancy, 48 hr
[6] = MDA-MB-231, 48 h, growth state, 48 hr
[7] = MDA-MB-231, 48 h, balanced dormancy hydrogel, 48 hr
[8] = MDA-MB-231, 48 h, cellular dormancy hydrogel, 48 hr
[9] = MDA-MB-231, 48 h, growth state hydrogel, 48 hr
[10] = MDA-MB-231, range over the three hydrogel formulations
[11] = Homo sapiens, MDA-MB-231, 48 hr
[12] = Homo sapiens, MDA-MB-231, 2D, 48 hr, read-out: cell viability

- EC50 (MDA-MB-231 cells [2]; Homo sapiens, MDA-MB-231, 48 h): 1.81 µM
SMILES: O=c1[nH]cc(F)c(=O)[nH]1 [5-FU, 5-fluorouracil]
- viability at 4000 µM (MDA-MB-231 cells [1]; [4]): 92 ± 4%
- viability at 7000 µM (MDA-MB-231 cells [1]; MDA-MB-231, 48 h, both dormant states, 48 hr): > 90%
- viability at 4000 µM (MDA-MB-231 cells [1]; [5]): 100 ± 6%
- viability at 10000 µM (MDA-MB-231 cells [1]; [5]): 99 ± 4%
- viability at 10000 µM (MDA-MB-231 cells [1]; MDA-MB-231, 48 h, either dormant state, 48 hr): > 93%
- viability at 7000 µM (MDA-MB-231 cells [1]; [6]): 80 ± 2%
- viability at 10000 µM (MDA-MB-231 cells [1]; [6]): 75 ± 5%
- cell viability (normalized to vehicle control) (MDA-MB-231 cells [1]; dormant cells, all concentrations tested): > 90%
- viability at 1000 µM (MDA-MB-231 cells [2]; Homo sapiens, MDA-MB-231, 2D, 1 mM, 48 hr, read-out: cell viability): 65 ± 3%

SMILES: C[S+](C)[O-] [DMSO, Dimethyl Sulfoxide]
- cell viability vs serum-containing medium (MDA-MB-231 cells [1]; 1 or 2% (v/v), growth hydrogel formulation, 48 hr): no significant differences
- cytotoxicity (MDA-MB-231 cells [1]; 18%, 26% (v/v)): cytotoxic

- fold increase in IC50, balanced dormancy vs growth state (MDA-MB-231 cells [1]): 1.3 fold
- fold increase in IC50, cellular dormancy vs growth state (MDA-MB-231 cells [1]): 1.8 fold
- EC50 (MDA-MB-231 cells [1]; [7]): 67.6 µM
- IC50 (MDA-MB-231 cells [1]; [7]): 58.3 µM
- EC50 (MDA-MB-231 cells [1]; [8]): 83.3 µM
- IC50 (MDA-MB-231 cells [1]; [8]): 79.9 µM
- EC50 (MDA-MB-231 cells [1]; [9]): 43.6 µM
- IC50 (MDA-MB-231 cells [1]; [9]): 43.6 µM
- EC50 (MDA-MB-231 cells [1]; [10]): 47.4 to 83.3 µM
- IC50 (MDA-MB-231 cells [1]; [10]): 43.6 to 79.9 µM
- EC50 (MDA-MB-231 cells [2]; Homo sapiens, MDA-MB-231, 48 h): 0.006 µM
- IC50 (MDA-MB-231 cells [2]; [11]): 0.007 µM
SMILES: COc1cccc2c1C(=O)c1c(O)c3c(c(O)c1C2=O)C[C@@](O)(C(=O)CO)C[C@@H]3O[C@H]1C[C@H](N)[C@H](O)[C@H](C)O1 [DOX, doxorubicin]
- fold decrease in nuclear localization, dormant vs growth state (MDA-MB-231 cells [3]): 1.5 fold
- intracellular accumulation (mean fluorescence intensity) between the three phenotypic states (MDA-MB-231 cells [3]; 0.05 mM, over 48 hr): no statistically significant differences
- nuclear to cytoplasmic (N/C) ratio (MDA-MB-231 cells [3]; balanced dormancy, 0.05 mM): 2.3±0.8
- nuclear to cytoplasmic (N/C) ratio (MDA-MB-231 cells [3]; cellular dormancy, 0.05 mM): 2.4±1.0
- nuclear to cytoplasmic (N/C) ratio (MDA-MB-231 cells [3]; growth state, 0.05 mM): 3.5±2.3
- viability, times higher in cellular dormancy than growth state (MDA-MB-231 cells [1]; 0.55): 4-6 times
- viability at 50 µM (MDA-MB-231 cells [1]; [4]): 57 ± 2%
- viability at 550 µM (MDA-MB-231 cells [1]; [4]): 16 ± 1%
- viability at 10 µM (MDA-MB-231 cells [1]; [5]): 91 ± 12%
- viability at 50 µM (MDA-MB-231 cells [1]; [5]): 62 ± 5%
- viability at 550 µM (MDA-MB-231 cells [1]; [5]): 24 ± 3%
- viability at 10 µM (MDA-MB-231 cells [1]; [6]): 82 ± 1%
- viability at 50 µM (MDA-MB-231 cells [1]; [6]): 44 ± 3%
- viability at 550 µM (MDA-MB-231 cells [1]; [6]): 5 ± 1%
- viability at 100 µM (MDA-MB-231 cells [2]; [12]): 1%

- EC50 (MDA-MB-231 cells [2]; 48 hr): 0.761 µM
- EC50 (MDA-MB-231 cells [2]; Homo sapiens, MDA-MB-231, 48 h): 0.716 µM
- IC50 (MDA-MB-231 cells [2]; [11]): 0.651 µM
SMILES: CC(=O)O[C@H]1C(=O)[C@@]2(C)[C@H]([C@H](OC(=O)c3ccccc3)[C@]3(O)C[C@H](OC(=O)[C@H](O)[C@@H](NC(=O)c4ccccc4)c4ccccc4)C(C)=C1C3(C)C)[C@]1(OC(C)=O)CO[C@@H]1C[C@@H]2O [PAC, paclitaxel]
- viability at 550 µM (MDA-MB-231 cells [1]; [4]): 86 ± 5%
- viability at 1000 µM (MDA-MB-231 cells [1]; MDA-MB-231, 48 h, balanced dormancy, 1.00 mM, 48 hr): 72 ± 3%
- viability at 100 µM (MDA-MB-231 cells [1]; [5]): 91 ± 6%
- viability at 550 µM (MDA-MB-231 cells [1]; [5]): 84 ± 5%
- viability at 1000 µM (MDA-MB-231 cells [1]; MDA-MB-231, 48 h, cellular dormancy, 1 mM, 48 hr): 75 ± 3%
- viability at 1000 µM (MDA-MB-231 cells [1]; MDA-MB-231, 48 h, dormant cells (either state), 1 mM, 48 hr): > 72%
- viability at 100 µM (MDA-MB-231 cells [1]; [6]): 55 ± 4%
- viability at 550 µM (MDA-MB-231 cells [1]; [6]): 51 ± 4%
- viability at 1000 µM (MDA-MB-231 cells [1]; MDA-MB-231, 48 h, growth state, 1 mM, 48 hr): 39 ± 4%
- viability at 0.01 µM (MDA-MB-231 cells [2]; Homo sapiens, MDA-MB-231, 2D, 0.01 μM, 48 hr, read-out: cell viability): 94 ± 13%
- viability at 100 µM (MDA-MB-231 cells [2]; [12]): 6 ± 2%
